Columns and labels:
Experiment in all cases: relative viability (nuclei count vs DMSO), 5 days (fraction); higher = more cells survive
Nelarabine + Bortezomib = compound: COc1nc(N)nc2c1ncn2[C@@H]1O[C@H](CO)[C@@H](O)[C@@H]1O [Nelarabine] + CC(C)C[C@H](NC(=O)[C@H](Cc1ccccc1)NC(=O)c1cnccn1)B(O)O [Bortezomib] (partner 0.002 µM)
In short: (§1)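 Each reported value is a median over duplicate plates. It expresses relative viability: treated-well nuclei count divided by vehicle-well nuclei count. Lung cancer cell lines in 1536-well plates were dosed by pin tool a day after seeding, alone with one drug or with a fixed anchor-drug dose plus five library-drug doses (not always all listed) in √10 steps, and nuclei were counted after 5 days.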

Nelarabine + Foretinib = compound: COc1nc(N)nc2c1ncn2[C@@H]1O[C@H](CO)[C@@H](O)[C@@H]1O [Nelarabine] + COc1cc2c(Oc3ccc(NC(=O)C4(C(=O)Nc5ccc(F)cc5)CC4)cc3F)ccnc2cc1OCCCN1CCOCC1 [Foretinib] (partner 0.25 µM)
In short: as §1

Adavosertib + Tozasertib = compound: C=CCn1c(=O)c2cnc(Nc3ccc(N4CCN(C)CC4)cc3)nc2n1-c1cccc(C(C)(C)O)n1 [Adavosertib] + Cc1cc(Nc2cc(N3CCN(C)CC3)nc(Sc3ccc(NC(=O)C4CC4)cc3)n2)n[nH]1 [Tozasertib] (partner 0.1 µM)
In short: as §1

Nelarabine + Linsitinib = compound: COc1nc(N)nc2c1ncn2[C@@H]1O[C@H](CO)[C@@H](O)[C@@H]1O [Nelarabine] + C[C@]1(O)C[C@@H](c2nc(-c3ccc4ccc(-c5ccccc5)nc4c3)c3c(N)nccn32)C1 [Linsitinib] (partner 1 µM)
In short: as §1

Cell Line	relative viability (Nelarabine + Bortezomib; first compound 0.01 µM)	relative viability (Nelarabine + Bortezomib; first compound 0.03162 µM)	relative viability (Nelarabine + Bortezomib; first compound 0.1 µM)	relative viability (Nelarabine + Bortezomib; first compound 0.3162 µM)	relative viability (Nelarabine + Bortezomib; first compound 1 µM)	relative viability (Nelarabine + Foretinib; first compound 0.01 µM)	relative viability (Nelarabine + Foretinib; first compound 0.03162 µM)	relative viability (Nelarabine + Foretinib; first compound 0.1 µM)	relative viability (Nelarabine + Foretinib; first compound 0.3162 µM)	relative viability (Nelarabine + Foretinib; first compound 1 µM)	relative viability (Adavosertib + Tozasertib; first compound 0.01 µM)	relative viability (Adavosertib + Tozasertib; first compound 0.03162 µM)	relative viability (Adavosertib + Tozasertib; first compound 0.1 µM)	relative viability (Adavosertib + Tozasertib; first compound 0.3162 µM)	relative viability (Nelarabine + Linsitinib; first compound 0.01 µM)	relative viability (Nelarabine + Linsitinib; first compound 0.03162 µM)	relative viability (Nelarabine + Linsitinib; first compound 0.1 µM)	relative viability (Nelarabine + Linsitinib; first compound 0.3162 µM)	relative viability (Nelarabine + Linsitinib; first compound 1 µM)
LOU-NH91	0.447	0.519	0.553	0.474	0.513	0.959	0.938	0.932	0.893	0.977	0.694	0.69	0.735	0.62	1.02	0.953	0.865	0.886	0.947
LU99A	1.33	1.09	1.15	1.23	1.33	0.934	0.683	0.706	0.801	0.889	0.284	0.273	0.263	0.273	0.534	0.461	0.669	0.581	0.617
LXF-289	1.13	0.99	0.995	1	1.01	1.07	0.922	0.988	1.07	0.969	0.174	0.192	0.205	0.261	1.01	0.935	0.969	0.997	0.949
NCI-H23	1.38	0.97	1.13	0.957	1.1	1.13	0.862	0.94	1.09	0.948	0.326	0.321	0.283	0.192	0.749	0.671	0.613	0.623	0.622
NCI-H322M	1.29	1.2	1.18	1.28	1.46	0.972	0.948	0.816	0.939	0.976	0.481	0.453	0.436	0.342	1.05	1.11	0.816	0.901	0.924
NCI-H441	0.357	0.71	0.613	0.519	0.567	0.98	0.977	0.918	0.933	0.943	0.688	0.685	0.801	0.636	0.679	0.605	0.614	0.52	0.603
NCI-H460		1.34	1.69	1.37	1.1	1.49	1.23	1.13	1.23	1.06	0.533	0.495	0.534	0.721	1.09	0.891	1.12	1.21	0.731
NCI-H520	0.67	0.552	0.696	0.542	0.529	1.06	0.799	0.95	0.789	0.676	0.406	0.437	0.347	0.411	1.19	0.889	1.24	1.08	1.05
NCI-H596	0.906	0.651	1.28	0.96	0.982	0.829	0.917	0.773	0.848	0.84	1.03	0.826	1.02	0.93	1.15	1.2	1.07	1.16	1.04
NCI-H647	1.28	0.988	0.897	1.29	1.14	1.22	1.02	1.26	1.26	1.37	0.273	0.276	0.245	0.317	1.7	1.02	1.26	1.21	1.35
NCI-H650	1.13	0.703	0.758	0.977	0.897	1.09	1.04	0.968	0.886	1.13	0.75	0.774	0.806	0.757	0.927	0.947	0.868	0.874	1
NCI-H661	0.986	0.932	0.866	0.912	0.866	1.15	1.2	1.02	1.05	1.06	0.353	0.36	0.339	0.349	0.719	0.859	0.723	0.555	0.535
NCI-H727	1.09	0.768	0.869	0.95	0.795	0.881	0.97	0.912	0.772	0.945	0.674	0.504	0.546	0.641	0.28	0.331	0.299	0.306	0.271
NCI-H838	1.06	0.748	0.87	0.868	0.7	1.24	0.937	1.08	1.08	1.09	0.237	0.268	0.328	0.283	1.29	0.907	1.06	1.11	1.13
NCI-H1355	1.39	1.05	1.25	1.32	1.37	1.05	0.984	0.947	1	1.03	0.549	0.553	0.522	0.615	1.04	0.688	0.739	0.822	0.887
